Laboratory results taken from publication PMC4894917, “Differences in Enzymatic Properties of the Saccharomyces kudriavzevii and Saccharomyces uvarum Alcohol Acetyltransferases and Their Impact on Aroma-Active Compounds Production” (Frontiers in Microbiology, 2016).

Tests used:
SuAtf2p = biological target: T1, SuAtf2p (Saccharomyces uvarum, UniProt A0ABN8WWD5); experiment: acetate ester formation by headspace SPME gas chromatography, cell extract; assay type: biochemical; details: acetyl-CoA 0.8 mM, 50 mM potassium phosphate pH 7.5, 10% glycerol
T1 construct: gene SUVZ07G4070; full-length untagged, pG-SuATF2-TDH3p in S. cerevisiae BY4741 atf1 atf2 iah1, cell extract (strain CLpSuATF2); N-terminus MDSLEEY translated from printed primer pGSuATF2f
T1 sequence (A0ABN8WWD5 1-545): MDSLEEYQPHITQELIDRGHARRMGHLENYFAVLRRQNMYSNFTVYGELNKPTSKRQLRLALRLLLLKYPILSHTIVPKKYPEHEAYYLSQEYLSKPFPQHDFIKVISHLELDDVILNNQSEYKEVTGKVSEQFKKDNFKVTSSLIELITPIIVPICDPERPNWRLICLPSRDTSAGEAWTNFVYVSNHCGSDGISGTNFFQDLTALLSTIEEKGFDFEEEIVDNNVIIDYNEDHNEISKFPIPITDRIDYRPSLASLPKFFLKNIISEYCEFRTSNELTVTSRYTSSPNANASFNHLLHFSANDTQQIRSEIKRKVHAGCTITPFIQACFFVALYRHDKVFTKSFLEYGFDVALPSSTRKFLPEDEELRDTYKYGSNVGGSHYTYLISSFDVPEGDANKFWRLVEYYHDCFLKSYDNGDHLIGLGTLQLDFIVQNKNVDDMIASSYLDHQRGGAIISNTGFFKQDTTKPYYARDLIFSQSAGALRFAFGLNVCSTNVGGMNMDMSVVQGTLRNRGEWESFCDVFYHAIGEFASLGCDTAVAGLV

SkAtf2p = biological target: T2, SkAtf2p (Saccharomyces kudriavzevii, UniProt A0AA35JHW3); experiment: as above; assay type: biochemical; details: acetyl-CoA 0.8 mM, 50 mM potassium phosphate pH 7.5, 10% glycerol
T2 construct: gene SKDI07G4300; full-length untagged, pG-SkATF2-TDH3p in S. cerevisiae BY4741 atf1 atf2 iah1, cell extract (strain CLpSkATF2); N-terminus MDDIEEY translated from printed primer pGSkATF2f
T2 sequence (A0AA35JHW3 1-535): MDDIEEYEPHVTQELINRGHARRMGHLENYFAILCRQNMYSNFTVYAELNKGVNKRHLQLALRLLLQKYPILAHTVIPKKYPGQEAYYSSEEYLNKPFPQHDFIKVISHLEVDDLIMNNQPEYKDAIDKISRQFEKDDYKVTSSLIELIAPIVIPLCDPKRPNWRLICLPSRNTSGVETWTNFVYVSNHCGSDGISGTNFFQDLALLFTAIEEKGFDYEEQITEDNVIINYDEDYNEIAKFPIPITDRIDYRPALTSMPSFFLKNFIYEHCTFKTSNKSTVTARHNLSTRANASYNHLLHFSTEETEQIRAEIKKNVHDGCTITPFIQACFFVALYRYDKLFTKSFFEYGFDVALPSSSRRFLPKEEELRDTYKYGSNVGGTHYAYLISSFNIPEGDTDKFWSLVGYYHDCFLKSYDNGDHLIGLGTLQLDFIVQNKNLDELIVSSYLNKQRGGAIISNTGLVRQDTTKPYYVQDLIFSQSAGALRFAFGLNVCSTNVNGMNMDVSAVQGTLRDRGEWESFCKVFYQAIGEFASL

ScAtf2p = biological target: T3, ScAtf2p (Saccharomyces cerevisiae, UniProt P53296); experiment: as above; assay type: biochemical; details: acetyl-CoA 0.8 mM, 50 mM potassium phosphate pH 7.5, 10% glycerol
T3 construct: gene ATF2; full-length untagged, pG-ScATF2-TDH3p in S. cerevisiae BY4741 atf1 atf2 iah1, cell extract (strain CLpScATF2)
T3 sequence (P53296 1-535): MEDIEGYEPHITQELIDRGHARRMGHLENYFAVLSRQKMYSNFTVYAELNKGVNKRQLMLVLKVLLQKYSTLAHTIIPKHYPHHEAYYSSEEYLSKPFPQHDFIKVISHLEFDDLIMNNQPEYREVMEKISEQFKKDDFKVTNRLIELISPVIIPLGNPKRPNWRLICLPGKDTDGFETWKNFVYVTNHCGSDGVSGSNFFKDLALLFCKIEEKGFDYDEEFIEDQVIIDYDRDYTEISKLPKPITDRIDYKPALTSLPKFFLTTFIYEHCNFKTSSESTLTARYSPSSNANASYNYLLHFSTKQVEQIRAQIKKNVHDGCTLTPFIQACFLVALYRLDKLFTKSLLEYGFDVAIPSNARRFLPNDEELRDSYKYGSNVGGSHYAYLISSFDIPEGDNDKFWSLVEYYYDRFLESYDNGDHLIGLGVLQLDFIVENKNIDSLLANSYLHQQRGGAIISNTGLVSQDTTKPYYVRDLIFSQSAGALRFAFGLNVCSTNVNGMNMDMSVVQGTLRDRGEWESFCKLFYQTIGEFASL

[1] = substrate: CC(C)CCO; experiment: isoamyl acetate formation by headspace SPME gas chromatography, cell extract; assay type: biochemical, Saccharomyces cerevisiae; details: acetyl-CoA 0.8 mM, 50 mM potassium phosphate pH 7.5, 10% glycerol, isoamyl alcohol 0.01-100 mM
From the text: isoamyl acetate formation by headspace SPME gas chromatography, cell extract on ScAtf1p

[2] = substrate: CC(C)CCO; experiment: as above; assay type: biochemical, Saccharomyces uvarum; details: acetyl-CoA 0.8 mM, 50 mM potassium phosphate pH 7.5, 10% glycerol, isoamyl alcohol 0.01-100 mM
From the text: isoamyl acetate formation by headspace SPME gas chromatography, cell extract on SuAtf1p

## OCCc1ccccc1 [2-phenylethanol]
SuAtf2p; 30 mM alcohol
  acetate ester formation by headspace SPME gas chromatography, cell extract: the proportion of the enzyme activity of SkAtf2p and SuAtf2p to 2-phenylethanol
SkAtf2p; 30 mM alcohol
  acetate ester formation by headspace SPME gas chromatography, cell extract: the proportion of the enzyme activity of SkAtf2p and SuAtf2p to 2-phenylethanol
ScAtf2p; 30 mM alcohol
  acetate ester formation by headspace SPME gas chromatography, cell extract: all the strains that expressed the individual ATF1 and ATF2 orthologs exhibited activities

## CC(C)CCO [isoamyl alcohol]
SuAtf2p; 100 mM alcohol
  acetate ester formation by headspace SPME gas chromatography, cell extract: enzymes Atf2 showed considerably stronger activity toward isoamyl alcohol than the other substrates
SkAtf2p; 100 mM alcohol
  acetate ester formation by headspace SPME gas chromatography, cell extract: enzymes Atf2 showed considerably stronger activity toward isoamyl alcohol than the other substrates
ScAtf2p; 100 mM alcohol
  acetate ester formation by headspace SPME gas chromatography, cell extract: enzymes Atf2 showed considerably stronger activity toward isoamyl alcohol than the other substrates

B1: ScAtf1p (Saccharomyces cerevisiae S288C) (protein)
chain: MNEIDEKNQAPVQQECLKEMIQNGHARRMGSVEDLYVALNRQNLYRNFCTYGELSDYCTRDQLTLALREICLKNPTLLHIVLPTRWPNHENYYRSSEYYSRPHPVHDYISVLQELKLSGVVLNEQPEYSAVMKQILEEFKNSKGSYTAKIFKLTTTLTIPYFGPTGPSWRLICLPEEHTEKWKKFIFVSNHCMSDGRSSIHFFHDLRDELNNIKTPPKKLDYIFKYEEDYQLLRKLPEPIEKVIDFRPPYLFIPKSLLSGFIYNHLRFSSKGVCMRMDDVEKTDDVVTEIINISPTEFQAIKANIKSNIQGKCTITPFLHVCWFVSLHKWGKFFKPLNFEWLTDIFIPADCRSQLPDDDEMRQMYRYGANVGFIDFTPWISEFDMNDNKENFWPLIEHYHEVISEALRNKKHLHGLGFNIQGFVQKYVNIDKVMCDRAIGKRRGGTLLSNVGLFNQLEEPDAKYSICDLAFGQFQGSWHQAFSLGVCSTNVKGMNIVVASTKNVVGSQESLEELCSIYKALLLGP
notes: full-length untagged, pG-ScATF1-TDH3p in S. cerevisiae BY4741 atf1 atf2 iah1, cell extract (strain CLpScATF1)
[1]
  Km: 32.2 ± 2.2 mM
  Vmax: 0.00999 µmol/min/mg

B2: SuAtf1p (Saccharomyces uvarum) (protein)
chain: MNTYSEKTSLVQDECLAKMIQNGHSRRMGSVEDLYAALNRQKLYRNFSTYSELNDYCTKDQLTLALRNICLKNPTLLHIVLPARWPDYENYYLSTEYYSQPHPKHDYISVLPELKFDGVILNEQPEHNALMKQILQELKDNNGSYTAKVFKLTTALTIPYAGPTSPTWRLICLPEEGHTDKWKKFIFLSNHCMCDGRSSIHFFQDLRDELNNMKTPPKKLDYIFQYEKDYQLLRKLPEPIENMIDFRPPYMFIPKSLISGFIYSHLRFSSKGVCTRMDEIEKSDEVVTEIITISPSEFQKIKAIIKSNIPGKCTITPFLEVCWFVSLHKWGKFFKPLKFEWLTDVFIPADCRSLLPEDEEVRAMYRYGANVGFVDFTPWISEFNMNDSKENFWPLIAHYHEVISGAIKDKKHLNGLGFNIQGLVQKYVNIDKVMRDRALGKSRGGTLLSNVGIFHQSEETDSRYSIRDLAFGQFQGSWHQAFSLGVCSTNVKGMNIVISSTKNVVGSQESLEELCAMYKALLLNP
notes: full-length untagged, pG-SuATF1-TDH3p in S. cerevisiae BY4741 atf1 atf2 iah1, cell extract (strain CLpSuATF1); N-terminus MNTYSE translated from printed primer pGSuATF1f
[2]
  Km: 92.9 ± 10.9 mM
  Vmax: 0.00569 µmol/min/mg
